Source: PMC4648589, “Selection of an HLA-C*03:04-Restricted HIV-1 p24 Gag Sequence Variant Is Associated with Viral Escape from KIR2DL3+ Natural Killer Cells: Data from an Observational Cohort in South Africa” (PLoS Medicine, 2015)
Several values for one entry are separate records, joined by “and”; a condition that tells them apart may be missing. Identical values can stand only once.

Assays:
[1] = tested on: primary KIR2DL3+ NK cells; assay: Primary NK cell degranulation (CD107a) against peptide-pulsed 721.221-ICP47-C*03:04 cells, KIR2DL3+ subset; assay type: cell-based, human; conditions: for KIR2DL3+ NK Cell Activity (Mean ± SEM): ratio of percent CD107a+ KIR2DL3+ NK cells with variant peptide to that with wild-type peptide; for Relative degranulation of KIR2DL3+ NK cells (CD107a): % CD107a+ NK cells divided by % with GKL control peptide, effector:target 1:5, 6 h at 26°C, mean ± SEM, nine donors
Experimental: (§1) To determine activation of primary NK cells following exposure to target cells pulsed with different peptide variants, NK cell degranulation assays measuring CD107a expression were performed using freshly isolated and purified NK cells from nine healthy KIR2DL3+ individuals. Primary NK cells were isolated by incubating whole blood with RosetteSep Human NK Cell Enrichment Cocktail (Stemcell Technologies) for 20 min at room temperature, followed by Histopaque-1077 (Sigma) density gradient centrifugation. NK cells were rested overnight in RPMI medium 1640 (Sigma-Aldrich) supplemented with 10% heat-inactivated fetal calf serum (Sigma-Aldrich), 2,500 U/ml penicillin, 2,500 μg/ml streptomycin, […] L-glutamine (Cellgro), and 1.0 ng/ml IL-15 (Cellgro). Subsequently, NK cells (1 × 10^5) were co-incubated with peptide-pulsed 721.221-ICP47-C*03:04 cells (5 × 10^5) at an effector:target ratio of 1:5 in RPMI containing anti-human CD107a-PE-Cy7 (12.5 μl/ml) and monensin (1.5 μl/ml, BD GolgiStop). Cells were incubated for 6 h at 26°C in 5% CO2. Cells were stained with 7AAD, anti-CD3-PB, anti-CD16-BV785, anti-CD56-BV605, anti-CD14/19-BV510, anti-KIR2DL2/3-PE, and anti-KIR2DL3-APC, washed, fixed with 4% (w/v in PBS) paraformaldehyde (Affymetrix), and analyzed by multiparameter flow cytometry using a BD LSR II.
Flow cytometry data were analyzed using FlowJo software version 10.0.6 (Tree Star), and statistical analysis was performed using GraphPad Prism 6 (GraphPad Software). HLA stabilization values are shown as mean relative fluorescence intensity; error bars represent standard deviation (SD). Relative fluorescence intensity was calculated by dividing the geometric mean fluorescence intensity (gMFI) of HLA expression in the presence of the tested peptide by the gMFI of stained target cells without peptide added in each respective assay. Binding of KIR2DL3-Fc is represented as percent of KIR2DL3+ cells ± SD. […] A repeated-measures one-way ANOVA was subsequently performed to compare the responses between the wild-type group and the groups of the two variant peptides, for the KIR2DL3+ and KIR2DL3− NK cells, respectively. This was followed by a Tukey’s post hoc test. Each individual was sampled one time.

KIR2DL3 = molecular target: T1, KIR2DL3 (Homo sapiens, UniProt P43628); assay: KIR2DL3-Fc binding to peptide-pulsed 721.221-ICP47-C*03:04 cells (flow cytometry); conditions: for KIR2DL3-Fc Binding (Mean ± SD): ratio of percent KIR2DL3-Fc binding of variant peptide to that of wild-type peptide TGag303; for KIR2DL3-Fc binding, percent of cells binding KIR2DL3-Fc: cells pulsed with 100 μM peptide for 20 h, 2.5 μg KIR2DL3-Fc, 1 h on ice, mean ± SD of six independent experiments
T1 construct: purchased R&D Systems (KIR2DL3-Fc); Immudex (HLA-C*03:04/peptide monomers)
T1 sequence (P43628 with tags, fused parts or gaps limits assumed): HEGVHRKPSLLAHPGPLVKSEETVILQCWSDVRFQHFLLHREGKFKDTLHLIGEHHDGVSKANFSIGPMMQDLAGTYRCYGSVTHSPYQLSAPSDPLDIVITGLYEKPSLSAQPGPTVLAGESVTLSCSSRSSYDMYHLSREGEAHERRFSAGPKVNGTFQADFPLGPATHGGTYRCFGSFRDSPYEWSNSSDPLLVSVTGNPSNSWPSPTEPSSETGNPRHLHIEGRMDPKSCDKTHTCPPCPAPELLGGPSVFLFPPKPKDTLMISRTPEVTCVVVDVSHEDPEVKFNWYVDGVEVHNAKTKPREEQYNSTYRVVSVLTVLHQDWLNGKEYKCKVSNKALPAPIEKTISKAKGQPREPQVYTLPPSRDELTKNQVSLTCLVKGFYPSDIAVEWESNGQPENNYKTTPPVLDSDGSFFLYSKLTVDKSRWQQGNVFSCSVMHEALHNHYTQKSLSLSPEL

HLA-C*03:04 = HLA-C*03:04 (Homo sapiens, UniProt P10321, A176E/A330V/A97T/C25G/C350S/D114A/D33Y/E197K/L119I/L127V/L171W/L218V/M285V/M309V/M331V/P208H/Q277E/Q291P/R243W/R45H/S123Y/S140Y/S297R/S48A/T118I/T187L/T329A/T363A/V319A); assay: HLA-C*03:04 stabilization assay on peptide-pulsed TAP-blocked 721.221-ICP47-C*03:04 cells (W6/32 staining, flow cytometry); assay type: cell-based; conditions: for HLA-C*03:04 stabilization, mean relative fluorescence intensity / HLA-C*03:04 stabilization, mean relative fluorescence intensity, titration: mean ± SD; for HLA-C*03:04 stabilization, mean relative fluorescence intensity: n = 3; for HLA-C*03:04 stabilization, mean relative fluorescence intensity (RFI): 100 μM peptide (saturating), 20 h at 26°C, gMFI with peptide divided by gMFI without peptide, mean ± SD of five experiments; for HLA-C*03:04 stabilization, mean relative fluorescence intensity, titration: serial peptide dilutions, non-saturating levels
[2] = tested on: primary KIR2DL3− NK cells; assay: Primary NK cell degranulation (CD107a) against peptide-pulsed 721.221-ICP47-C*03:04 cells, KIR2DL3− subset; assay type: cell-based, human; conditions: % CD107a+ NK cells divided by % with GKL control peptide; effector:target 1:5, 6 h at 26°C; mean ± SEM, nine donors
Experimental: as §1
Flow cytometry data were analyzed using FlowJo software version 10.0.6 (Tree Star), and statistical analysis was performed using GraphPad Prism 6 (GraphPad Software). HLA stabilization values are shown as mean relative fluorescence intensity; error bars represent standard deviation (SD). Relative fluorescence intensity was calculated by dividing the geometric mean fluorescence intensity (gMFI) of HLA expression in the presence of the tested peptide by the gMFI of stained target cells without peptide added in each respective assay. Binding of KIR2DL3-Fc is represented as percent of KIR2DL3+ cells ± SD. […]

[3] = molecular target: biotinylated HLA-C*03:04 monomer refolded with … (human | not stated | HIV-1 clade C); assay: SPR; Biacore 3000; […]) 10 μg/ml in PBS, 60 μl at 20 μl/min; HBS-EP; 25°C; […]
[4] = 0.1 μM peptide (non-saturating)

Chain of recombinant human KIR2DL3-IgG-Fc chimera (P43628 22-245, change not shown): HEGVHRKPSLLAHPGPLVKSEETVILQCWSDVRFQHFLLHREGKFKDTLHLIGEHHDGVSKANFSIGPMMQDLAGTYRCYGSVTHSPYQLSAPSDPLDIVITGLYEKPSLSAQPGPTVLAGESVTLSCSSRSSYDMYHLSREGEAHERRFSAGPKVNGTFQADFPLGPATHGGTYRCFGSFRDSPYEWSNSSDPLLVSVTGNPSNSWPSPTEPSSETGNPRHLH

Substance | KIR2DL3+ NK Cell Activity (Mean ± SEM) [1] | KIR2DL3 binding (in words) (KIR2DL3; HLA-C*03:04 stabilized at similar levels, used as negative control) | KIR2DL3-Fc Binding (Mean ± SD) (KIR2DL3) | HLA-C*03:04 stabilization, mean relative fluorescence intensity (HLA-C*03:04; [4]) | HLA-C*03:04 stabilization, mean relative fluorescence intensity (HLA-C*03:04; 1 μM peptide (non-saturating)) | HLA-C*03:04 stabilization, mean relative fluorescence intensity (RFI) (HLA-C*03:04) | HLA-C*03:04 stabilization, mean relative fluorescence intensity, titration (HLA-C*03:04) | Relative degranulation of KIR2DL3+ NK cells (CD107a) [1] | Relative degranulation of KIR2DL3− NK cells (CD107a) [2] | KIR2DL3-Fc binding, percent of cells binding KIR2DL3-Fc (KIR2DL3) | Kd [3]
GAVDPLLKL [GKL, reference compound] | 1.70 ± 0.3 | did not allow for KIR2DL3 binding | 0.06 ± 0.03 | – | – | – | – | – | – | – | –
RALGPAATL | – | – | – | 1.29 ± 0.19 | 2.72 ± 0.81 | – | – | – | – | – | –
RALGPGATL | – | – | – | 2.26 ± 0.39 | 4.24 ± 0.46 | – | – | – | – | – | –
YVDRFFKAL [TGag303A] | 1.36 ± 0.33 | – | 0.90 ± 0.17 | – | – | 3.17 ± 0.53 | 1.84 ± 0.79 | 0.89 ± 0.05 | 1.06 ± 0.04 | 15.46 ± 7.24% | –
YVDRFFKTL [TGag303] | – | – | – | – | – | 3.24 ± 0.64 | 2.60 ± 1.45 | 0.78 ± 0.07 | 1.06 ± 0.04 | 18.01 ± 10.45% | –
YVDRFFKVL [TGag303V] | 0.76 ± 0.08 | – | 2.74 ± 0.66 | – | – | 3.40 ± 0.74 | 2.17 ± 1.36 | 0.63 ± 0.07 | 1.04 ± 0.05 | 44.67 ± 14.42% | –
recombinant human KIR2DL3-IgG-Fc chimera (from UniProt P43628) (Fc fusion) | – | – | – | – | – | – | – | – | – | – | 93 nM and 77 nM
